Where “and” joins values, the source holds several entries; their conditions need not be identical. Equal entries are not always repeated.
Columns and labels:
[1] = Plasma and CSF pharmacokinetics after s.c. or i.v. administration; format: in vivo, rhesus monkeys; details: for Cmax of metabolite hydroxyvarenicline / AUC of metabolite hydroxyvarenicline: mean
[2] = rats; based on the unbound fraction; cited from earlier work
[3] = test system: neurons expressing PSAM-GlyRs; details: systemic administration; rhesus monkeys; cited from earlier work
[4] = after uPSEM817 0.064 mg/kg i.v., CSF
[5] = after uPSEM817 0.064 mg/kg i.v., plasma
[6] = after uPSEM817 0.064 mg/kg s.c., plasma

Row | SMILES | Tmax of metabolite hydroxyvarenicline [1, 4] [h] | Cmax of metabolite hydroxyvarenicline [1, 4] [ng/mL] | Tmax of metabolite hydroxyvarenicline [1, 5] [h] | AUC of metabolite hydroxyvarenicline [1, 5] [ng·h/mL] | Cmax of metabolite hydroxyvarenicline [1, 5] | Tmax of metabolite hydroxyvarenicline [1, 6] [h] | AUC of metabolite hydroxyvarenicline [1, 6] [ng·h/mL] | Cmax of metabolite hydroxyvarenicline [1, 6] | detection of hydroxyvarenicline as metabolite in CSF ([1]; after uPSEM817 0.064 mg/kg, CSF) | CSF:plasma ratio [2] | detection of varenicline as metabolite in plasma or CSF ([1]; after uPSEM817 0.064 mg/kg s.c. or i.v.) | neuronal activity in neurons expressing PSAM-GlyRs [3]
1 | O=c1cnc2cc3c(cc2[nH]1)C1CNCC3C1 (stereo not drawn) [hydroxyvarenicline] | 1.5 | 0.05 | 3 | 1.161 | 0.87 ng/mL and 0.874 ng/mL | 1 | 0.556 | 0.55 ng/mL and 0.553 ng/mL | only detected in a single CSF sample for one animal | – | – | –
2 | c1cnc2cc3c(cc2n1)[C@@H]1CNC[C@H]3C1 [varenicline] | – | – | – | – | – | – | – | – | – | 1.25 | not detected | reduces neuronal activity

Source: publication PMC9910343 (ACS chemical neuroscience, 2022)
